These are literature values, as cited in paper PMC3014826 (The Biochemical journal, 2009).

The series has as its system A6 TCR. The note with it: ITC, 37 °C; ref Armstrong et al. (2008).

As for HTLV-1 Tax11-19 peptide [Native Tax], the “ΔG°” value is -8.59 ± 0.04 kcal/mol, the “ΔH°” value is -7.1 ± 0.1 kcal/mol and the “ΔS°” value is 4.7 ± 0.4 cal/mol/K.
